Assay results reported in EP3181574A1, “HIGHLY SOLUBLE REBAUDIOSIDE D” (Purecircle USA, priority 2010, dated 2012).
Like-named read-outs stand apart in the source and are kept apart here. Values belong to the compound of their own block, whether it stands above or below them.

Experiments:
[1] = cited from earlier work
[2] = water, room temperature; cited from earlier work
[3] = Solubility of Rebaudioside D (crystalline vs amorphous) in water; format: physicochemical; conditions: for solubility: room temperature, % = grams soluble in 100 grams of solvent
Method: Hereinafter, unless specified otherwise the solubility of material is determined in RO (reverse osmosis) water at room temperature. Where the solubility is expressed as "%" it to be understood as number of grams of material soluble in 100 grams of solvent.
100g of crystalline Rebaudioside D, produced by PureCircle Sdn Bhd, with 98.1% purity (on anhydrous basis) was dissolved in 500 mL aqueous ethanol, containing 50% (vol.) ethanol. The solution was maintained at 50°C and dried using a YC-015 laboratory spray drier (Shanghai Pilotech Instrument & Equipment Co. Ltd., China) operating at 175°C inlet and 100°C outlet temperatures. […]

[4] = 50°C, solution crystallized after cooling down to room temperature (20°C)
[5] = 100°C, solution crystallized after cooling down to room temperature (20°C)

SMILES: C=C1C[C@@]23CC[C@H]4[C@@](C)(CCC[C@@]4(C)C(=O)O[C@@H]4O[C@H](CO)[C@@H](O)[C@H](O)[C@H]4O)[C@@H]2CC[C@]1(O[C@@H]1O[C@H](CO)[C@@H](O)[C@H](O[C@@H]2O[C@H](CO)[C@@H](O)[C@H](O)[C@H]2O)[C@H]1O[C@@H]1O[C@H](CO)[C@@H](O)[C@H](O)[C@H]1O)C3 [Form 2 Anhydrous, Rebaudioside A]
Rate of dissolution in H2O at 25°C ([1]; in 5 minutes): Intermediate (<30% in 5 minutes)

SMILES: C=C1C[C@@]23CC[C@H]4[C@@](C)(CCC[C@@]4(C)C(=O)O[C@@H]4O[C@H](CO)[C@@H](O)[C@H](O)[C@H]4O)[C@@H]2CC[C@]1(O[C@@H]1O[C@H](CO)[C@@H](O)[C@H](O[C@@H]2O[C@H](CO)[C@@H](O)[C@H](O)[C@H]2O)[C@H]1O[C@@H]1O[C@H](CO)[C@@H](O)[C@H](O)[C@H]1O)C3 [Rebaudioside A]
thermodynamic equilibrium solubility [2]: 0.8%

SMILES: C=C1C[C@@]23CC[C@H]4[C@@](C)(CCC[C@@]4(C)C(=O)O[C@@H]4O[C@H](CO)[C@@H](O)[C@H](O)[C@H]4O)[C@@H]2CC[C@]1(O[C@@H]1O[C@H](CO)[C@@H](O)[C@H](O[C@@H]2O[C@H](CO)[C@@H](O)[C@H](O)[C@H]2O)[C@H]1O[C@@H]1O[C@H](CO)[C@@H](O)[C@H](O)[C@H]1O)C3 [Form 4 Amorphous, Rebaudioside A]
Rate of dissolution in H2O at 25°C ([1]; in 5 minutes): High (>35% in 5 minutes)

SMILES: C=C1C[C@@]23CC[C@H]4[C@@](C)(CCC[C@@]4(C)C(=O)O[C@@H]4O[C@H](CO)[C@@H](O)[C@H](O)[C@H]4O)[C@@H]2CC[C@]1(O[C@@H]1O[C@H](CO)[C@@H](O)[C@H](O[C@@H]2O[C@H](CO)[C@@H](O)[C@H](O)[C@H]2O)[C@H]1O[C@@H]1O[C@H](CO)[C@@H](O)[C@H](O)[C@H]1O)C3 [Form 3 Solvate, Rebaudioside A]
Rate of dissolution in H2O at 25°C ([1]; in 5 minutes): High (>30% in 5 minutes)

Solubility, % (in water) ([3]; 20°C): 0.05%
Solubility, % (in water) [3, 4]: 0.2%
Solubility, % (in water) [3, 5]: 0.5%
solubility ([3]; water): 0.05%
SMILES: C=C1C[C@@]23CC[C@H]4[C@@](C)(CCC[C@@]4(C)C(=O)O[C@@H]4O[C@H](CO)[C@@H](O)[C@H](O)[C@H]4O[C@@H]4O[C@H](CO)[C@@H](O)[C@H](O)[C@H]4O)[C@@H]2CC[C@]1(O[C@@H]1O[C@H](CO)[C@@H](O)[C@H](O[C@@H]2O[C@H](CO)[C@@H](O)[C@H](O)[C@H]2O)[C@H]1O[C@@H]1O[C@H](CO)[C@@H](O)[C@H](O)[C@H]1O)C3 [crystalline Rebaudioside D, Rebaudioside D]

Solubility, % (in water) ([3]; 20°C): 0.1%
Solubility, % (in water) [3, 4]: 0.5%
Solubility, % (in water) [3, 5]: 1.1%
solubility ([3]; water): 0.2%
SMILES: C=C1C[C@@]23CC[C@H]4[C@@](C)(CCC[C@@]4(C)C(=O)O[C@@H]4O[C@H](CO)[C@@H](O)[C@H](O)[C@H]4O[C@@H]4O[C@H](CO)[C@@H](O)[C@H](O)[C@H]4O)[C@@H]2CC[C@]1(O[C@@H]1O[C@H](CO)[C@@H](O)[C@H](O[C@@H]2O[C@H](CO)[C@@H](O)[C@H](O)[C@H]2O)[C@H]1O[C@@H]1O[C@H](CO)[C@@H](O)[C@H](O)[C@H]1O)C3 [amorphous Reb D, Rebaudioside D]

SMILES: C=C1C[C@@]23CC[C@H]4[C@@](C)(CCC[C@@]4(C)C(=O)O[C@@H]4O[C@H](CO)[C@@H](O)[C@H](O)[C@H]4O)[C@@H]2CC[C@]1(O[C@@H]1O[C@H](CO)[C@@H](O)[C@H](O[C@@H]2O[C@H](CO)[C@@H](O)[C@H](O)[C@H]2O)[C@H]1O[C@@H]1O[C@H](CO)[C@@H](O)[C@H](O)[C@H]1O)C3 [Form 1 Hydrate, Rebaudioside A]
Rate of dissolution in H2O at 25°C ([1]; in 60 minutes): Very low (<0.2% in 60 minutes)

solubility when heat is applied ([3]; water, heated, upon cooling to room temperature crystallizes back out from the solution): up to 0.5%
solubility ([3]; water): 0.05%
SMILES: C=C1C[C@@]23CC[C@H]4[C@@](C)(CCC[C@@]4(C)C(=O)O[C@@H]4O[C@H](CO)[C@@H](O)[C@H](O)[C@H]4O[C@@H]4O[C@H](CO)[C@@H](O)[C@H](O)[C@H]4O)[C@@H]2CC[C@]1(O[C@@H]1O[C@H](CO)[C@@H](O)[C@H](O[C@@H]2O[C@H](CO)[C@@H](O)[C@H](O)[C@H]2O)[C@H]1O[C@@H]1O[C@H](CO)[C@@H](O)[C@H](O)[C@H]1O)C3 [Rebaudioside D]
